Source: US7781565B2 (priority 2006, dated 2010)
Entries after “also recorded” stand apart in the source; their conditions may differ.

The substances below were run on NCI-60 cell lines.
Assay type: cell-based, human
In the case of RAVCEWD, the “Cell Line the peptide is associated with (peptide recovered from phage library selection on this NCI-60 cell line)” value is reported as “CAIK-1 Renal”.
In the case of RAVEMGT, the “Cell Line with which the peptide (and its tripeptide motif) is associated” value (“Cell Line with which the peptide” for short) is reported as “H460-Lung”.
For RAVERVA, the “Cell Line the peptide is associated with (peptide recovered from phage library selection on this NCI-60 cell line)” value was “CAIK-1 Renal”.
For RAVGRQL, the “Cell Line (NCI-60 cell line the peptide and its motif are associated with)” value was “OVCAR-5 Ovarian”.
With RAVGRVA the “Cell Line with which the peptide” value was “HL-60-Leukemia”.
RAVGYNA was tested, and the “Cell Line (NCI-60 cell line the peptide is associated with)” value was “MALME-3M Melanoma”.
In the case of RAVLELW, the “Cell Line (NCI-60 cell line the peptide and its motif are associated with)” value is reported as “SK-MEL-28 Melanoma”.
In the case of RAVWRAS, the “Cell Line (NCI-60 cell line the peptide and its motif are associated with)” value is reported as “SK-MEL-2 Melanoma”.
RDGAVNL was tested, and the “Cell Line (NCI-60 cell line the peptide and its motif are associated with)” value was “UACC 257 Melanoma”.
In the case of RDGRAVR, the “Cell Line (NCI-60 cell line the peptide is associated with)” value is reported as “KM-12C Colon”.
In the case of RDGRGAG, the “Cell Line (NCI-60 cell line the peptide is associated with)” value is reported as “SF-295 CNS”.
In the case of RDGVRVG, the “Cell Line (NCI-60 cell line the peptide is associated with)” value is reported as “LOX-IMVI Melanoma”.
RDLAGPS was tested, and the “Cell Line (NCI-60 cell line the peptide and its motif are associated with)” value was “OVCAR-4 Ovarian”.
In the case of RDLGGRW, the “Cell Line the peptide is associated with (peptide recovered from phage library selection on this NCI-60 cell line)” value is reported as “MCF-7 Breast”.
In the case of RDLRVHL, the “Cell Line (NCI-60 cell line the peptide and its motif are associated with)” value is reported as “UACC62 Melanoma”.
In the case of REAERVS, the “Cell Line with which the peptide” value is reported as “H322-Lung”.
In the case of REEFAGR, the “Cell Line with which the peptide” value is reported as “SR Leukemia”.
REGGSDT was tested, and the “Cell Line the peptide is associated with (peptide recovered from phage library selection on this NCI-60 cell line)” value was “NCI/ADR-RES Breast”.
In the case of RERGAVQ, the “Cell Line with which the peptide” value is reported as “CCRF-CEM Leukemia”.
With REVPGLR the “Cell Line (NCI-60 cell line the peptide is associated with)” value was “SNB-19 CNS; also recorded: SF-539 CNS”.
With RFSGGLQ the “Cell Line (NCI-60 cell line the peptide and its motif are associated with)” value was “SK-MEL-28 Melanoma”.
In the case of RFSSRAV, the “Cell Line (NCI-60 cell line the peptide and its motif are associated with)” value is reported as “IGROV1 Ovarian”.
RFTRSSG was tested, and the “Cell Line with which the peptide” value was “A549-Lung”.
With RFYHLRS the “Cell Line with which the peptide” value was “A549-Lung”.
For RGARVSA, the “Cell Line with which the peptide” value was “Molt-4-Leukemia”.
In the case of RGAVAFE, the “Cell Line with which the peptide” value is reported as “SR Leukemia”.
In the case of RGAVREM, the “Cell Line the peptide is associated with (peptide recovered from phage library selection on this NCI-60 cell line)” value is reported as “SN12C Renal”.
RGGLPRG was tested, and the “Cell Line (NCI-60 cell line the peptide is associated with)” value was “HCT-15 Colon”.
RGGQRAS was tested, and the “Cell Line (NCI-60 cell line the peptide and its motif are associated with)” value was “M14 Melanoma”.
In the case of RGGRSPS, the “Cell Line (NCI-60 cell line the peptide is associated with)” value is reported as “HT-29 Colon”.
In the case of RGGSDEA, the “Cell Line the peptide is associated with (peptide recovered from phage library selection on this NCI-60 cell line)” value is reported as “BT-549 Breast”.
RGGSPPV was tested, and the “Cell Line the peptide is associated with (peptide recovered from phage library selection on this NCI-60 cell line)” value was “RXF393 Renal”.
For RGLGRPV, the “Cell Line the peptide is associated with (peptide recovered from phage library selection on this NCI-60 cell line)” value was “NCI/ADR-RES Breast”.
For RGLQGGR, the “Cell Line (NCI-60 cell line the peptide and its motif are associated with)” value was “SK-MEL-2 Melanoma”.
For RGLRSVN, the “Cell Line with which the peptide” value was “H226-Lung”.
For RGLVRVV, the “Cell Line (NCI-60 cell line the peptide is associated with)” value was “COLO-205-Colon”.
For RGPSQVL, the “Cell Line (NCI-60 cell line the peptide and its motif are associated with)” value was “PC3 Prostate”.
RGRGSTL was tested, and the “Cell Line the peptide is associated with (peptide recovered from phage library selection on this NCI-60 cell line)” value was “MDA-MB-435-Breast”.
For RGRLALL, the “Cell Line (NCI-60 cell line the peptide and its motif are associated with)” value was “M14 Melanoma”.
With RGRLEVP the “Cell Line with which the peptide” value was “Molt-4-Leukemia”.
For RGRVLLP, the “Cell Line (NCI-60 cell line the peptide and its motif are associated with)” value was “M14 Melanoma”.
In the case of RGSAQNF, the “Cell Line with which the peptide” value is reported as “RPMI-8226-Leukemia”.
In the case of RGSFGLG, the “Cell Line the peptide is associated with (peptide recovered from phage library selection on this NCI-60 cell line)” value is reported as “T-47D Breast”.
In the case of RGSHLVP, the “Cell Line with which the peptide” value is reported as “CCRF-CEM Leukemia”.
In the case of RGSLLWA, the “Cell Line (NCI-60 cell line the peptide and its motif are associated with)” value is reported as “UACC 257 Melanoma”.
